Data set [1] concerns MAC 15A adenocarcinoma of the colon. As to the kind of experiment: In vitro chemosensitivity against MAC 15A adenocarcinoma (MTT assay). It counts as cell-based. Conditions: Mus musculus, MAC15A, 96 hours continuous exposure. The protocol:
In Vitro Activity Against MAC 15A Adenocarcinoma.
MAC 15A cells were grown in RPMI 1640 medium supplemented with 10% foetal calf serum containing a 1% antibiotic mixture under standard tissue culture conditions and were maintained at 37° C. in a humidified atmosphere of 5% CO2 in air. Cells were harvested from a stock culture in exponential growth phase and plated in 96-well flat-bottomed plates to achieve a final density of 2×10^3 cells per well. After 2 hours incubation medium was replaced with either fresh medium containing 0.5% DMSO (control) or medium containing test compound dissolved in DMSO at a concentrations from 10 mM to 1 nM. Chemosensitivity was assessed using MTT assay by the method of Plumb et al Cancer Research 49 (1989) 4435-4440.
Following 96 hours continuous exposure to drug at 37° C. cells were incubated with fresh drug-free medium immediately prior to addition of MTT solution (5 mg/ml). Medium and MTT were removed after 4 hours and 150 μl of DMSO was added. For each plate the absorbance of the resulting solution was measured at the analytical wavelength 550 nm for formazan product, using a Labsystem Mutiskan. IC50 values were obtained from growth curves of drug concentration against % survival and are expressed in μm.
In general terms: Formazan colour is commonly taken as a measure of viable cells.

Data set [2] relates to DNA: Calf thymus sodium salt. Nature of the data set: DNA binding assay, Hoechst dye displacement. Also noted: key: NB = Not binding. As to conditions: concentration required to displace 50% of the Hoescht Dye; 20 μM DNA, 2 μM dye. How it is done:
(§1) The propensity of selected compounds to bind to DNA in the absence of topos was measured in order to identify compounds that would bind weakly, or not at all. […] A […] was used determine binding constants of the compound to DNA by displacement of either ethidium bromide (an intercalator) or Hoechst dye 33258 (a groove binder) which form a DNA-bound fluorescent complex measured by fluorescence spectroscopy.
(§2) DNA Binding Assay Protocol
(§3) In order to detect the strength and mode of anthraquinone compound binding to DNA the displacement of known DNA binders was detected by measuring the fluorescence of a DNA/fluorescent compound complex. The addition of known concentrations of ethidium bromide, an interchelator, and Hoescht Dye, a groove binder, cause a fluorescent DNA/binder complex that can be detected and the fluorescence quantified. The addition of anthraquinone compounds displaces the interchelators or groove binders, depending on the compound mode of DNA binding, and therefore reduces the fluorescence accordingly. The preferred binding action of compounds can be quantified by determining the reduction in fluorescence resulting from a given concentration of compound. The quantification of a compounds ability to bind to DNA is expressed, as the concentration required to displace 50% of the ethidium bromide or Hoescht Dye, thus reducing the fluorescence by 50%. Therefore, the values produced are QE50 for ethidium, bromide, or QH50 for Hoescht Dye.
(§4) Compound: 300, 60, 10 and 10/6gM (1.66 μM) solution concentrations were prepared for use in the assay to produce a range of compound. Concentrations. 100, 200 and 300 μl of each dilution were used in the assay reaction. This provides a range of concentrations: −30, 20, 10, 6, 4, 2, 1, 0.67, 0.33, 0.17, 0.11, 0.06, 0.00 μM in the assay environment. Intermediate concentrations can be utilised to enhance the accuracy of the displacement concentration determination.
(§5) Buffer: 100 mM Tris, NaCI 500 mM. DNA: Calf thymus sodium salt. Stock solution of 200 μM was prepared in 10× assay buffer. Dilution of DNA therefore provided the correct concentration of assay buffer in the assay cell.300 μg DNA was used in 3 ml reaction mixture therefore 20 μM DNA concentration. Hoescht Dye 2 μM final concentration, therefore 100 μl of a 60 μM stock solution was added to a 3 ml assay. Ethidium Bromide 2 μM final concentration therefore 100 μl of a 60 μM stock solution was added to a 3 ml assay. Distilled H2O Water was added to produce 3 ml reaction volume. Order of addition: 1. DNA, 2. Water, 3. Drug, 4. Dye
(§6) The assay was completed with both Hoescht Dye and Ethidium. Bromide for each compound. The ethidium bromide is a DNA inter-chelator, Hoescht Dye is a minor groove binder. 100, 200 and […] of the lowest compound dilution was assayed. This procedure was repeated with all further dilution's. This provided a curve of fluorescence intensity decrease with increasing compound concentration. QE50 and QH50 values were determined by extrapolating the concentration of compound at the point where the fluorescence intensity was reduced by 50%. Controls involving compound only and ethidium. bromide or Hoechst Dye without compound were carried out for each experiment. Two readings for each concentration of compound were performed per experiment, each experiment was repeated at least three times. Fluorometer: Perkin Elmer Luminescence Spectrometer LS 50B.

Data set [3] concerns DNA: Calf thymus sodium salt. As to the kind of experiment: DNA binding assay, ethidium bromide displacement. Also noted: key: NB = Not binding. Conditions: concentration required to displace 50% of the ethidium bromide; 20 μM DNA, 2 μM dye. The protocol: as §1, §2, §3, §4, §5, §6

The structures appear in SMILES notation. pIC50: −log10 of the molar value.

For orientation: melting point means the temperature, or range, at which the solid turns liquid. In general, pIC50 refers to −log10 of the IC50, conventionally taken in molar units. On to `NCC(=O)N1CCC[C@H]1C(=O)OCCCNc1cccc2c1C(=O)c1ccccc1C2=O.O=C(O)C(F)(F)F` [Example 131, 1-[3-(glycyl-L-prolyloxy)propylamino]anthracene-9,10-dione tri-fluoroacetate], for which the melting point is 146 °C. This molecule also had a pIC50 in data set [1] (96 h) of 5.60.

Regarding `O=C(O)C(F)(F)F.O=C1c2ccccc2C(=O)c2c(NCCCOC(=O)[C@H]3CCCN3)cccc21` [Example 69, 1-[3-(D-prolyloxy)propylamino]anthracene-9,10-dione trifluoroacetate], the melting point was 66 °C. The same molecule gave a pIC50 in data set [1] of 4.99. Moreover, the “QH50 Minor groove binding” value in data set [2] is “NB”. In addition, the “QE50 Intercalating” value in data set [3] is “NB”.

`CN[C@@H](C)C(=O)OCCCCNc1cccc2c1C(=O)c1ccccc1C2=O.O=C(O)C(F)(F)F` [Example 91, 1-[4-(N-methyl-L-alanyloxy)butylamino]anthracene-9,10-dione tri-fluoroacetate] displayed a melting point of 84 °C. This molecule gave a negative logarithm of the IC50 (pIC50) in data set [1] (96 h) of 5.32.

Regarding `CC(C)C[C@H](N)C(=O)NCC(=O)OCCCNc1cccc2c1C(=O)c1ccccc1C2=O.O=C(O)C(F)(F)F` [Example 133, 1-[3-(L-leucylglycyloxy)propylamino]anthracene-9,10-dione trifluoroacetate], the melting point was determined as 100 °C. Moreover, the pIC50 in data set [1] was 5.92.

The molecule `NCC(=O)OCCNc1cccc2c1C(=O)c1ccccc1C2=O.O=C(O)C(F)(F)F` [Example 59, 1-[2-(glycyloxy)ethylamino]anthracene-9,10-dione trifluoroacetate] gave a melting point of 180 °C. In data set [1], this molecule showed a negative-log IC50 (pIC50) of 5.46.

Molecule `N[C@H](Cc1ccccc1)C(=O)OCCCNc1cccc2c1C(=O)c1ccccc1C2=O.O=C(O)C(F)(F)F` [Example 65, 1-[3-(D-phenylalanyloxy)propylamino]anthracene-9,10-dione trifluoro-acetate] gave a melting point of 102 °C. In addition, the pIC50 in data set [1] is 5.32.

With `N[C@@H](Cc1ccccc1)C(=O)OCCNc1cccc2c1C(=O)c1ccccc1C2=O.O=C(O)C(F)(F)F` [Example 33, 1-[2-(L-phenylalanyloxy)ethylamino]anthracene-9,10-dione trifluoro-acetate], the “QH50 Minor groove binding” value in data set [2] was “NB”. Moreover, the “QE50 Intercalating” value in data set [3] was “NB”.

With `O=C1c2c(O)ccc(O)c2C(=O)c2c(NCCNCCO)ccc(NCCNCCO)c21` [Mitoxantrone, reference compound], the “QH50 Minor groove binding” value in data set [2] came to 1.2 ± 0.3 µM. The “QE50 Intercalating” value in data set [3] was 0.8 ± 0.3 µM.

In data set [1], `O=C(O)C(F)(F)F.O=C1c2ccccc2C(=O)c2c(NCCOC(=O)[C@@H]3CCCN3)cccc21` [Example 137, 1-[2-(prolyloxy)ethylamino]anthracene-9,10-dione trifluoroacetate] showed a pIC50 of 4.47. In addition, in data set [2], the “QH50 Minor groove binding” value is “NB”. Further, in data set [3], the “QE50 Intercalating” value is given as “NB”.

`CNCC(=O)OCCCCNc1cccc2c1C(=O)c1ccccc1C2=O.O=C(O)C(F)(F)F` [Example 83, 1-[4-(sarcosyloxy)butylamino]anthracene-9,10-dione trifluoroacetate] registered a melting point of 132 °C. Besides, in data set [1], the pIC50 is 5.14.

`CC(C)[C@H](N)C(=O)OCCCCNc1ccc(O)c2c1C(=O)c1ccccc1C2=O.O=C(O)C(F)(F)F` [Example 53, 4-hydroxy-1-[4-(L-valyloxy)butylamino]anthracene-9,10-dione tri-fluoroacetate] gave a negative-log IC50 (pIC50) in data set [1] (96 h) of 5.28. Besides, in data set [2], the “QH50 Minor groove binding” value was determined as 4.4 µM. Besides, the “QE50 Intercalating” value in data set [3] came out at 2.9 µM.

Consider `C[C@H](N)C(=O)OCCCNc1cccc2c1C(=O)c1ccccc1C2=O.O=C(O)C(F)(F)F` [Example 29, 1-[3-(L-alanyloxy)propylamino]anthracene-9,10-dione trifluoroacetate], for which the melting point came out at 126 °C. In data set [1], this molecule had a negative logarithm of the IC50 (pIC50) of 5.01. In addition, the “QH50 Minor groove binding” value in data set [2] is recorded as “NB”. In addition, the “QE50 Intercalating” value in data set [3] is “NB”.

On to `CC[C@H](N)C(=O)OCCCCNc1cccc2c1C(=O)c1ccccc1C2=O.O=C(O)C(F)(F)F` [Example 87, (S)-1-[4-(2-aminobutanoyloxy)butylamino]-anthracene-9,10-dione trifluoroacetate], for which the melting point stood at 118 °C. For the same molecule, in data set [1], the pIC50 is 5.52.

`O=C(O)C(F)(F)F.O=C1c2ccccc2C(=O)c2c(NCCCOC(=O)[C@@H]3CCCN3)cccc21` [Example 67, 1-[3-(L-prolyloxy)propylamino]anthracene-9,10-dione trifluoroacetate] returned a melting point of 66 °C. The molecule also had a pIC50 in data set [1] of 5.08. In addition, in data set [2], the “QH50 Minor groove binding” value is on record as “NB”. The “QE50 Intercalating” value in data set [3] is reported as “NB”.

Molecule `NCC(=O)OCCCNc1cccc2c1C(=O)c1ccccc1C2=O.O=C(O)C(F)(F)F` [Example 61, 1-[3-(glycyloxy)propylamino]anthracene-9,10-dione trifluoroacetate] registered a melting point of 198 °C. Besides, the negative logarithm of the IC50 (pIC50) in data set [1] is 4.97.

Regarding `NCC(=O)OCCCNc1ccc(O)c2c1C(=O)c1c(O)cccc1C2=O.O=C(O)C(F)(F)F` [Example 127, 4,8-dihydroxy-1-[3-(glycyloxy)propylamino]anthracene-9,10-dione trifluoroacetate], the melting point amounted to 196 °C. In data set [1], this molecule gave a pIC50 of 5.89.

Consider `CC(C)(C)OC(=O)N[C@H](Cc1ccccc1)C(=O)OCCCNc1cccc2c1C(=O)c1ccccc1C2=O`, for which the melting point was found to be 168 °C.

`CC(C)(C)OC(=O)NCC(=O)OCCNc1cccc2c1C(=O)c1ccccc1C2=O` [Example 58, 1-[2-(N-tertiarybutoxycarbonylglycyloxy)ethylamino]anthracene-9,10-dione] returned a melting point of 122 °C.

In turn, `C[C@@H](NC(=O)OC(C)(C)C)C(=O)OCCCNc1cccc2c1C(=O)c1ccccc1C2=O` registered a melting point of 58 °C.

In turn, `NCC(=O)OCCCNc1ccc(O)c2c1C(=O)c1ccccc1C2=O.O=C(O)C(F)(F)F` [Example 123, 4-hydroxy-1-[3-(glycyloxy)propylamino]anthracene-9,10-dione tri-fluoroacetate] displayed a melting point of 188 °C. Moreover, the negative-log IC50 (pIC50) in data set [1] (96 h) was 6.52.

On to `C[C@@H](N)C(=O)OCCCNc1cccc2c1C(=O)c1ccccc1C2=O.O=C(O)C(F)(F)F` [Example 63, 1-[3-(D-alanyloxy)propylamino]anthracene-9,10-dione trifluoroacetate], for which the melting point is 134 °C. This molecule also gave a negative-log IC50 (pIC50) in data set [1] of 5.16. Further, in data set [2], the “QH50 Minor groove binding” value is on record as “NB”. Further, in data set [3], the “QE50 Intercalating” value was “NB”.

Take `CC(C)(C)OC(=O)N1CCC[C@H]1C(=O)OCCCNc1cccc2c1C(=O)c1ccccc1C2=O`: the melting point amounted to 121 °C.

The record behind these values is patent US20030203975A1, “Anti-cancer agents” (priority 1998, published 2003).
